Results on two compounds are retold here after DBAASP.

Values after ≈ are worked out from the molar mass of the structure shown.

Some test systems named below: Escherichia coli; Escherichia coli JW3441; Escherichia coli JW5831; Escherichia coli MG1655.
Holding throughout (test): ≥ marks a high value that may be exact or a test limit, other limits are often not marked, values filed in µg/mL are converted to µM
Test [1] relates to Escherichia coli ATCC 25922.
Test [2] relates to Escherichia coli DH5alpha.
Test [3] deals with Pseudomonas aeruginosa ATCC 27853.
Test [4] deals with Pseudomonas aeruginosa H188.

For orientation: MIC means the lowest concentration that inhibits growth of the organism. A high value points to a need for much substance. On to `CC[C@H](C)[C@H](NC(=O)[C@H](C)NC(=O)[C@H](CCCCN)NC(=O)[C@H](CC(C)C)NC(=O)[C@H](C)NC(=O)[C@@H](NC(=O)[C@H](Cc1cnc[nH]1)NC(=O)[C@H](CC(C)C)NC(=O)[C@H](CCC(=O)O)NC(=O)[C@@H](NC(=O)[C@H](CCCCN)NC(=O)[C@H](CCCCN)NC(=O)[C@H](C)NC(=O)[C@H](CO)NC(=O)[C@H](CCCCN)NC(=O)[C@H](Cc1ccccc1)NC(=O)[C@@H](NC(=O)[C@H](CCCCN)NC(=O)[C@H](CC(C)C)NC(=O)[C@H](Cc1ccccc1)NC(=O)[C@H](CO)NC(=O)[C@H](CCCCN)NC(=O)[C@H](Cc1c[nH]c2ccccc12)NC(=O)[C@H](CCCCN)NC(C)=O)[C@@H](C)O)[C@@H](C)O)[C@@H](C)O)C(=O)N[C@@H](CO)C(=O)N[C@@H](CO)C(N)=O` [KWKSFLKTFKSAKKTELHTALKAISS], for which the MIC amounted to 5.37 µM (≈ 16.2 µg/mL) in test [1]; 21.5 µM (≈ 64.9 µg/mL) in test [2]; 42 µM (≈ 127 µg/mL) in the test on Escherichia coli; 42 µM (≈ 127 µg/mL) in test [3]; 21.5 µM (≈ 64.9 µg/mL) in test [4].
Turning to `CC[C@H](C)[C@H](NC(=O)[C@H](CCCCN)NC(=O)CNC(=O)[C@H](CC(C)C)NC(=O)[C@H](CC(C)C)NC(=O)[C@H](Cc1cnc[nH]1)NC(=O)[C@H](Cc1ccccc1)NC(=O)[C@@H](N)C(C)C)C(=O)N[C@H](C(=O)N[C@@H](Cc1cnc[nH]1)C(=O)N[C@@H](Cc1cnc[nH]1)C(=O)N[C@H](C(=O)NCC(=O)N[C@@H](CC(N)=O)C(=O)N[C@@H](Cc1ccccc1)C(=O)N[C@H](C(=O)N[C@@H](Cc1ccc(O)cc1)C(=O)NCC(=O)N[C@@H](Cc1ccccc1)C(=O)N[C@@H](CO)C(=O)N[C@@H](Cc1cnc[nH]1)C(=O)N[C@H](C(=O)N[C@@H](Cc1ccccc1)C(N)=O)C(C)C)C(C)C)C(C)C)[C@@H](C)CC` [VFHLLGKIIHHVGNFVYGFSHVF], the MIC in the test on Escherichia coli JW3441, against Escherichia coli JW5831 and against Escherichia coli MG1655 was 4 µM (≈ 10.7 µg/mL) in each case.
